Measured values taken from patent US20050032873A1, “3-Amino chroman and 2-amino tetralin derivatives” (Wyeth, priority 2003, published 2005).
Where two headings read alike, the source gives them in different places.

What was measured:
serotonin transporter = biological target: T1, serotonin transporter (Rattus norvegicus, UniProt P31652); experiment: 5-HT transporter affinity: displacement of 3H-paroxetine from male rat cortical membranes; format: binding; conditions: displacement of 3H-paroxetine; male rat cortical membranes; read-out: 5-HT Transporter Affinity Ki
T1 construct: displace ^3H-paroxetine from male rat cortical membranes; from tissue; host or cells: male rat cortical membranes
T1 sequence (P31652 whole entry): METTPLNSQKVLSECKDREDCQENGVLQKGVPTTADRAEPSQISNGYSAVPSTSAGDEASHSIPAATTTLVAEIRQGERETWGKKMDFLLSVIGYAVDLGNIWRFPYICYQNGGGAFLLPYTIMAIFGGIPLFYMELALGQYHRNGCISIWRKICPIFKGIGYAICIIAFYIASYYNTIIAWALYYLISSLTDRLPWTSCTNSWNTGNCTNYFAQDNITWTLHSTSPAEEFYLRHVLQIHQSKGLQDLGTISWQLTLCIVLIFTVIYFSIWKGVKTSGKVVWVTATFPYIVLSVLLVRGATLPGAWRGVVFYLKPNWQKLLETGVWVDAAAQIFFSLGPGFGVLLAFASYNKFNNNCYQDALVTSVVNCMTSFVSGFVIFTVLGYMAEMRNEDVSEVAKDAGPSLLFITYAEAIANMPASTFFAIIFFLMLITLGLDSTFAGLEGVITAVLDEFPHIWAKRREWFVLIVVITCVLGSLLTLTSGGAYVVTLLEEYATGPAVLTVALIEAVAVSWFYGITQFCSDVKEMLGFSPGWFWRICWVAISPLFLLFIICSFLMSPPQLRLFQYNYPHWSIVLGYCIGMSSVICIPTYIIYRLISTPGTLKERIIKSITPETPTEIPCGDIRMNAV

[1] = biological target: T2, cloned human 5-HT1A receptors (Homo sapiens, UniProt P08908); experiment: 35S-GTPγS binding assay, 5-HT1A function; format: biochemical; conditions: for IC50: antagonist potency, reversal of 8-OH-DPAT, read-out: 5-HT1A Function GTPγS IC50
T2 construct: expressed in transfected cells
T2 sequence (P08908 1-422): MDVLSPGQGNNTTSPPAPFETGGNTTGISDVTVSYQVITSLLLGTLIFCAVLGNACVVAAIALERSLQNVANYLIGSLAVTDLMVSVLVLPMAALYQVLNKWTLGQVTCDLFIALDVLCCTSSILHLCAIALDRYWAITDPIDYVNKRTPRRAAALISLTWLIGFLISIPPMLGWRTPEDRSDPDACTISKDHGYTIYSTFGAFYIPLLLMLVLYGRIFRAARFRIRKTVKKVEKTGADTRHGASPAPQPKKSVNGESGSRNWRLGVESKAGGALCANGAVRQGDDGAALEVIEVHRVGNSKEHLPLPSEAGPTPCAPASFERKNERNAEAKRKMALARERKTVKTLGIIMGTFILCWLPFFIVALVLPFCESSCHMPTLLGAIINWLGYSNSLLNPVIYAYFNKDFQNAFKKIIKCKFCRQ

5-HT1A receptor [2] = biological target: T3, 5-HT1A receptor (Homo sapiens, UniProt P08908); experiment: 5-HT1A receptor affinity: displacement of [3H] 8-OH-DPAT; format: binding; parameters: expressed in transfected cells; conditions: for Ki: displacement of [3H] 8-OH-DPAT, CHO cells stably transfected with human 5-HT1A receptors, read-out: 5-HT1A Receptor Affinity Ki; for inhibition at 1 µM: read-out: 5-HT1A Receptor Affinity, % @ 1 μM
T3 sequence (P08908 1-422): T2 sequence (P08908 1-422)

5-HT1A receptor [3] = biological target: T3, 5-HT1A receptor; experiment: cAMP accumulation assay, 5-HT1A function; format: cell-based; conditions: for Emax / 5-HT1A Function cAMP (Emax): in brackets after EC50 or IC50; for Emax: read-out: 5-HT1A Function cAMP (Emax); for EC50: cells marked EC50 (agonist)
[4] = maximum inhibitory effect, in brackets after IC50
[5] = maximum stimulatory effect, in brackets after EC50, read-out: 5-HT1A Function GTPγS (Emax)
[6] = maximum inhibitory effect, in brackets after IC50, read-out: 5-HT1A Function GTPγS (Imax)

Ki (serotonin transporter) [nM]	inhibition at 1 µM (5-HT1A receptor [2]) [%]	SMILES	further results
152	–	CCCN(C(C)CCc1c[nH]c2ccc(F)cc12)C1COc2c(F)ccc(C(N)=O)c2C1 (single isomer, unassigned) [Compound 12d, 8-fluoro-3-[[3-(5-fluoro-1H-indol-3-yl)-1-methylpropyl](propyl)amino]-3,4-dihydro-2H-chromene-5-carboxamide]	IC50 [1]: 6000 nM; 5-HT1A Function GTPγS (Imax) [1, 4]: 13%
112	–	CCCN(C(C)CCc1c[nH]c2ccc(C#N)cc12)C1COc2c(F)ccc(C(N)=O)c2C1 (single isomer, unassigned) [Compound 13d, 3-[[3-(5-cyano-1H-indol-3-yl)-1-methylpropyl](propyl)amino]-8-fluoro-3,4-dihydro-2H-chromene-5-carboxamide]	–
217	–	CC(CCc1c[nH]c2c(F)cc(F)cc12)N(CC1CC1)C1COc2c(F)ccc(C(N)=O)c2C1 (single isomer, unassigned) [Compound 154b, 3-{(cyclopropylmethyl)[3-(5,7-difluoro-1H-indol-3-yl)-1-methylpropyl]amino}-8-fluorochromane-5-carboxamide]	Ki (5-HT1A receptor [2]): 88.2 nM

Second part, the molecule before the results:

SMILES	Ki (serotonin transporter) [nM]	inhibition at 1 µM (5-HT1A receptor [2]) [%]	further results
NC(=O)c1ccc(F)c2c1CC(N(CCCc1c[nH]c3ccc(F)cc13)C1CCC1)CO2 (single isomer, unassigned; (+)) [Compound 4a, (+)-3-{cyclobutyl[3-(5-fluoro-1H-indol-3-yl)propyl]amino}-8-fluorochromane-5-carboxamide]	4.93	–	Emax (5-HT1A receptor [3]): 0%
NC(=O)c1ccc(F)c2c1CC(N(CCCc1c[nH]c3ccc(F)cc13)CC1CC1)CO2 (single isomer, unassigned; (+)) [Compound 5b, (+)-3-{(cyclopropylmethyl)[3-(5-fluoro-1H-indol-3-yl)propyl]amino}-8-fluorochromane-5-carboxamide]	3.7	–	5-HT1A Function GTPγS (Imax) [1, 4]: 82%; Emax [1, 5]: 18%; 5-HT1A Function cAMP (Emax) (5-HT1A receptor [3]): 69%
NC(=O)c1ccc(F)c2c1CC(NCCCc1c[nH]c3ccc(F)cc13)CO2 (single isomer, unassigned; (-)) [Compound 1b, (−)-8-fluoro-3-{[3-(5-fluoro-1H-indol-3-yl)propyl]amino}chromane-5-carboxamide]	76	47	–
NC(=O)c1ccc(F)c2c1CC(N(CCCc1c[nH]c3ccc(F)cc13)C1CCC1)CO2 (single isomer, unassigned; (-)) [Compound 4b, (−)-3-{cyclobutyl[3-(5-fluoro-1H-indol-3-yl)propyl]amino}-8-fluorochromane-5-carboxamide]	1.53	–	5-HT1A Function cAMP (Emax) (5-HT1A receptor [3]): 0%
NC(=O)c1ccc(F)c2c1CC(N(CCCc1c[nH]c3ccc(F)cc13)CC1CC1)CO2 (single isomer, unassigned; (-)) [Compound 5a, (−)-3-{(cyclopropylmethyl)[3-(5-fluoro-1H-indol-3-yl)propyl]amino}-8-fluorochromane-5-carboxamide]	4.1	–	Emax [1, 6]: 100%; 5-HT1A Function cAMP (Emax) (5-HT1A receptor [3]): 0%
NC(=O)c1ccc(F)c2c1CC(N(CCCc1c[nH]c3ccc(F)cc13)C1CCC1)CO2 (centres unmarked) [Compound 4, 3-{cyclobutyl[3-(5-fluoro-1H-indol-3-yl)propyl]amino}-8-fluorochromane-5-carboxamide]	2.6	–	Emax (5-HT1A receptor [3]): 0%
NC(=O)c1ccc(F)c2c1CC(N(CCCc1c[nH]c3ccc(F)cc13)CC1CC1)CO2 (centres unmarked) [Compound 5, 3-{(cyclopropylmethyl)[3-(5-fluoro-1H-indol-3-yl)propyl]amino}-8-fluorochromane-5-carboxamide]	3.6	–	Emax [1, 6]: 88.2%; Emax [1, 5]: 28.4%; Emax (5-HT1A receptor [3]): 0%
COc1cccc2c1CC(N(CCCCc1c[nH]c3ccc(F)cc13)C1CCC1)CO2 (centres unmarked) [Compound 36, N-cyclobutyl-N-[4-(5-fluoro-1H-indol-3-yl)butyl]-N-(5-methoxy-3,4-dihydro-2H-chromen-3-yl)amine]	–	–	IC50 [1]: 668 nM; Emax [1, 6]: 56%; EC50 (5-HT1A receptor [3]): 12.3 nM; Emax (5-HT1A receptor [3]): 61%; Ki (5-HT1A receptor [2]): 11.7 nM
COC(=O)c1ccc(F)c2c1CC(NCCCc1c[nH]c3ccc(F)cc13)CO2 (centres unmarked) [Compound 54, Methyl 8-fluoro-3-{[3-(5-fluoro-1H-indol-3-yl)propyl]amino}chromane-5-carboxylate]	–	–	5-HT1A Function GTPγS (Emax) ([1]; maximum stimulatory effect, in brackets after EC50): 85%
O=C(NCc1ccccc1)c1ccc(F)c2c1CC(N(CCCc1c[nH]c3ccc(F)cc13)C1CCC1)CO2 (centres unmarked) [Compound 69, N-benzyl-3-{cyclobutyl[3-(5-fluoro-1H-indol-3-yl)propyl]amino}-8-fluorochromane-5-carboxamide]	15.1	3	–
NC(=O)c1ccc(F)c2c1CC(N(CCCc1c[nH]c3ccc(F)cc13)Cc1ccccc1)CO2 (centres unmarked) [Compound 74, 3-{benzyl[3-(5-fluoro-1H-indol-3-yl)propyl]amino}-8-fluorochromane-5-carboxamide]	641	20	–
CNC(=O)c1ccc(F)c2c1CC(NCCc1c[nH]c3ccc(F)cc13)CO2 (centres unmarked) [Compound 84, 8-fluoro-3-{[2-(5-fluoro-1H-indol-3-yl)ethyl]amino}-N-methylchromane-5-carboxamide]	83	0	–
COc1ccc2[nH]cc(CCCNC3COc4c(F)ccc(C(N)=O)c4C3)c2c1 (centres unmarked) [Compound 104, 8-fluoro-3-{[3-(5-methoxy-1H-indol-3-yl)propyl]amino}chromane-5-carboxamide]	4050	–	Ki (5-HT1A receptor [2]): 16.7 nM
NC(=O)c1ccc(F)c2c1CC(NCCCc1c[nH]c3c(Cl)cccc13)CO2 (centres unmarked) [Compound 109, 3-{[3-(7-chloro-1H-indol-3-yl)propyl]amino}-8-fluorochromane-5-carboxamide]	69	–	Ki (5-HT1A receptor [2]): 27.7 nM
NC(=O)c1ccc(F)c2c1OCC(N(CCCc1c[nH]c3ccc(F)cc13)C1CCC1)C2 (centres unmarked) [Compound 122, 3-{cyclobutyl[3-(5-fluoro-1H-indol-3-yl)propyl]amino}-5-fluorochromane-8-carboxamide]	71	0	–
NC(=O)c1ccc(F)c2c1OCC(N(CCCCc1c[nH]c3ccc(F)cc13)C1CCC1)C2 (centres unmarked) [Compound 126, 3-{cyclobutyl[4-(5-fluoro-1H-indol-3-yl)butyl]amino}-5-fluorochromane-8-carboxamide]	17.1	0	–
NC(=O)c1ccc(F)c2c1OCC(N(CCCc1c[nH]c3c(F)cc(F)cc13)C1CCC1)C2 (centres unmarked) [Compound 131, 3-{cyclobutyl[3-(5,7-difluoro-1H-indol-3-yl)propyl]amino}-5-fluorochromane-8-carboxamide]	162	49	–
NC(=O)c1ccc(F)c2c1CC(NCCCn1ccc3ccccc31)CO2 (centres unmarked) [Compound 184, 8-Fluoro-3-{[3-(1H-indol-1-yl)propyl]amino}chromane-5-carboxamide]	611	46	–
CCCN(CCCCn1ccc2cccc(F)c21)C1COc2c(F)ccc(C(N)=O)c2C1 (centres unmarked) [Compound 190, 8-Fluoro-3-[[4-(7-fluoro-1H-indol-1-yl)butyl](propyl)amino]chromane-5-carboxamide]	–	–	IC50 [1]: 3600 nM; Emax [1, 6]: 84%; EC50 (5-HT1A receptor [3]): 321 nM; Emax (5-HT1A receptor [3]): 59%; Ki (5-HT1A receptor [2]): 16.6 nM
NC(=O)c1ccc(F)c2c1CC(N(CCCCn1ccc3c(F)cccc31)C1CCC1)CO2 (centres unmarked) [Compound 204, 3-{Cyclobutyl[4-(4-fluoro-1H-indol-1-yl)butyl]amino}-8-fluorochromane-5-carboxamide]	288	–	Ki (5-HT1A receptor [2]): 17.4 nM
